In patent US20230096766A1, “AMINO ACID HAVING FUNCTIONAL GROUP CAPABLE OF INTERMOLECULAR HYDROGEN BONDING, PEPTIDE COMPOUND CONTAINING SAME AND METHOD FOR PRODUCTION THEREOF” (Chugai Seiyaku Kabushiki Kaisha, priority 2018, published 2023):
*1 amine or outer side, *2 acyl side, *3 side chain or, on linkers, in order; H or OH if unused. Where a SMILES comes first, the peptide text is derived from it. Bridges are numbered along the chain shown (N, C = ends). [ ]: non-standard residue; d: D form. The star is where a group is joined. ξ: configuration not given here. Glu(NHSO2Me) = CS(=O)(=O)NC(=O)CC[C@H](N)C(=O)O; NMePhe(3-Cl) = CN[C@@H](Cc1cccc(Cl)c1)C(=O)O; NMehPhe = CN[C@@H](CCc1ccccc1)C(=O)O; Propyl(2,2-Me2,3-OH) = CC(C)(CO)C*; NMeF = CN[C@@H](Cc1ccccc1)C(=O)O; NMeI = CC[C@H](C)[C@H](NC)C(=O)O; NMeβAla = CN(CCC(=O)[*:2])[*:1]; NMeL = CN[C@@H](CC(C)C)C(=O)O; NMeAbu = CC[C@H](NC)C(=O)O; Piperidide = C1CCN(*)CC1; CH2CMe2OH = CC(C)(O)C*; NBuGly = CCCCNCC(=O)O; NPrGly = CCCNCC(=O)O; Propyl(3-OH) = OCCC*; Ethyl(2-OH) = OCC*; ξS = NC(CO)C(=O)O; Sar = CNCC(=O)O; tBu = CC(C)(C)*

Assay: in vitro
Settings: human

| SMILES | Papp (Caco-2, Caco-2 (cm/sec)) [×10⁻⁶ cm/s] | further results |
| --- | --- | --- |
| CCCCN1CC(=O)N(C)[C@@H](Cc2ccccc2)C(=O)N[C@@H]([C@@H](C)CC)C(=O)N(C)[C@@H](CC(C)C)C(=O)N[C@@H]([C@@H](C)O)C(=O)N(CCCC)CC(=O)N(C)[C@@H](Cc2ccccc2)C(=O)N(C)[C@@H](CC(C)C)C(=O)N[C@@H](CCC(=O)NC)C(=O)N(C)[C@@H]([C@@H](C)CC)C(=O)N[C@H](C(=O)N2CCCCC2)CC1=O [Compound J06] ([NBuGly][NMeF]I[NMeL]T[NBuGly][NMeF][NMeL]E(NHMe)[NMeI]D-Piperidide; lactam N-11) | – | Papp (Caco-2, Caco-2 (membrane permeability)): 0.0085 ×10⁻⁶ cm/s |
| CCCN1CC(=O)N(C)[C@@H](Cc2cccc(Cl)c2)C(=O)N(C)[C@@H](CC(C)C)C(=O)N[C@@H](COC(C)(C)C)C(=O)N(C)[C@@H](CC(C)C)C(=O)N[C@H](C(=O)N2CCCCC2)CC(=O)N(C)CC(=O)N(C)[C@@H](Cc2ccccc2)C(=O)N[C@@H](COCC(C)(C)O)C(=O)N(C)[C@@H](CC(C)C)C(=O)N[C@@H]([C@@H](C)O)C1=O [AP07] ([Sar][NMeF]S(CH2CMe2OH)[NMeL]T[NPrGly][NMePhe(3-Cl)][NMeL]S(tBu)[NMeL]D-Piperidide; lactam N-11) | 1.3 | – |
| CC(C)C[C@@H]1NC(=O)[C@H](CCc2ccccc2)N(C)C(=O)[C@@H](C(C)C)NC(=O)C[C@@H](C(=O)N2CCCCC2)NC(=O)[C@H](CC(C)C)N(C)C(=O)[C@H](Cc2cccc(Cl)c2)N(C)C(=O)[C@H](COCCO)NC(=O)[C@H](CC(C)C)N(C)C(=O)CN(C)C(=O)[C@H]([C@@H](C)O)NC(=O)[C@H](CC(C)C)N(C)C1=O [Compound A02] ([dV][NMehPhe]L[NMeL]T[Sar][NMeL]S(Ethyl(2-OH))[NMePhe(3-Cl)][NMeL]D-Piperidide; lactam N-11) | 0.45 | – |
| CC(C)C[C@@H]1NC(=O)[C@H](Cc2ccccc2)N(C)C(=O)[C@H](CC(C)C)N(C)C(=O)CCN(C)C(=O)C[C@@H](C(=O)N2CCCCC2)NC(=O)[C@H](CC(C)C)N(C)C(=O)[C@H](Cc2ccccc2)N(C)C(=O)[C@H]([C@@H](C)O)NC(=O)[C@H](Cc2ccccc2)N(C)C1=O [pd207] ([NMeβAla][NMeL][NMeF]L[NMeF]T[NMeF][NMeL]D-Piperidide; lactam N-9) | 1.7 | – |
| CCCCN1CC(=O)N(C)[C@@H](CC(C)C)C(=O)N[C@@H](COCCCO)C(=O)N(C)[C@@H](Cc2cccc(Cl)c2)C(=O)N(C)[C@@H](CC(C)C)C(=O)N[C@H](C(=O)N2CCCCC2)CC(=O)N[C@H](C(C)C)C(=O)N(C)[C@@H](Cc2ccccc2)C(=O)N[C@@H](CC(C)C)C(=O)N(C)[C@@H](CC(C)C)C(=O)N[C@@H]([C@@H](C)O)C1=O [AP98] ([dV][NMeF]L[NMeL]T[NBuGly][NMeL]S(Propyl(3-OH))[NMePhe(3-Cl)][NMeL]D-Piperidide; lactam N-11) | 0.16 | – |
| CCCCN1CC(=O)N(C)[C@@H](Cc2cccc(Cl)c2)C(=O)N[C@@H](CCC(=O)NS(C)(=O)=O)C(=O)N(C)[C@@H](CC(C)C)C(=O)N[C@@H]([C@@H](C)O)C(=O)N(CCCC)CC(=O)N(C)[C@@H](Cc2ccccc2)C(=O)N(C)[C@@H](CC(C)C)C(=O)N[C@@H](CC(C)C)C(=O)N(C)[C@@H](CC(C)C)C(=O)N[C@H](C(=O)N2CCCCC2)CC1=O [pd66] ([NBuGly][NMePhe(3-Cl)][Glu(NHSO2Me)][NMeL]T[NBuGly][NMeF][NMeL]L[NMeL]D-Piperidide; lactam N-11) | – | Papp (Caco-2, Caco-2): 0.09 ×10⁻⁶ cm/s |
| CC[C@H]1C(=O)N[C@@H](CC(C)C)C(=O)N(C)[C@@H](CC(C)C)C(=O)N(C)[C@@H](Cc2ccccc2)C(=O)NC(COCC(C)(C)CO)C(=O)N(C)[C@@H](Cc2ccccc2)C(=O)N(C)[C@@H](CC(C)C)C(=O)N[C@@H]([C@@H](C)O)C(=O)N(C)CC(=O)N(C)[C@@H](CC(C)C)C(=O)N[C@H](C(=O)N2CCCCC2)CC(=O)N1C (stereo partly drawn) [AP122] ([NMeAbu]L[NMeL][NMeF][ξS](Propyl(2,2-Me2,3-OH))[NMeF][NMeL]T[Sar][NMeL]D-Piperidide; lactam N-11) | 2.9 | – |
